According to US10709750B2, “Female menopause alleviation use of composition containing composite extract of red clover and pomegranate as active ingredient” (HLSCIENCE CO., LTD, priority 2014, dated 2020):
Marks after values point to notes of the source that are not given here.

What was measured:
Type in all cases: in vivo
Conditions in all cases: 120 mg/kg po; estradiol 0.03 μg/head sc
OVX ddY mice [1] = assay: Body weight and food consumption in OVX ddY mice, once daily for 84 days
Protocol: That is, the experiment was performed after dividing into sterile distilled water 10 ml/kg administered vehicle control after sham surgery (hereinafter sham control), sterile distilled water 10 ml/kg administered vehicle control after OVX surgery (hereinafter OVX control), pomegranate extract single formula 120 mg/kg administered group (PCP) after OVX, and 9 types of red clover:pomegranate extract mixed formula (g/g) administered groups after OVX surgery including red clover:pomegranate extract 1:1 (g/g) mixed formula 120 mg/kg administered group after OVX surgery (1-1), red clover:pomegranate extract 1:2 (g/g) mixed formula 120 mg/kg administered group after OVX surgery (1-2), red clover:pomegranate extract 1:4 (g/g) mixed formula 120 mg/kg administered group after OVX surgery (1-4), red clover:pomegranate extract 1:6 (g/g) mixed formula 120 mg/kg administered group after OVX surgery (1-6), red clover:pomegranate extract 1:8 (g/g) mixed formula 120 mg/kg administered group after OVX surgery (1-8), red clover:pomegranate extract 2:1 (g/g) mixed formula 120 mg/kg administered group after OVX surgery (2-1), red clover:pomegranate extract 4:1 (g/g) mixed formula 120 mg/kg administered group after OVX surgery (4-1), red clover:pomegranate extract 6:1 (g/g) mixed formula 120 mg/kg administered group after OVX surgery (6-1), and red clover:pomegranate extract 8:1 (g/g) mixed formula 120 mg/kg administered group after OVX surgery (8-1).
(§1) Optimal amounts of red clover extract or pomegranate extract were suspended or dissolved in sterile distilled water, and orally administered at a dose of 10 ml/kg once daily for 84 days from 28 days after OVX. That is, red clover extract and pomegranate extract single formula, and red clover:pomegranate extract 1:1, 1:2, 1:4, 1:6, 1:8, 2:1, 4:1, 6:1 and 8:1 (g/g) mixture 120 mg/kg were each orally administered for 84 days, and sham control and OVX control were orally administered with only sterile distilled water as a vehicle at the same dose for the same period instead of the test material, and according to earlier researchers' method [Chiba et al., 2003; Murakami et al., 2007; Tousen et al., 2011], 0.03 ug of 17β-estradiol (Sigma-Aldrich, St. Louise, Mo., USA) was dissolved in 0.2 ml of sterile saline, and subcutaneously administered to back skin at a dose of 0.2 ml/mouse (0.03 μg/head/day) once daily for 84 days from 28 days after OVX surgery (Table 15, FIG. 18). The administration dose of mixed formula was set higher 12 times than a human clinical dose of 600 mg, i.e., 600 mg/60 kg)×12=120 mg/kg, in consideration of a body surface area of mouse, and the dose of each of red clover extract and pomegranate extract single formula was also set as 120 mg/kg for direct comparative evaluation of efficacy.
That is, all experimental animals except sham control were randomly selected and underwent bilateral ovariectomy to induce estrogen deficient menopausal disorder. On the other hand, in sham operated group, both ovaries were detected by the same method but incisions were not made, and abdominal cavities were closed again. At 27 days after surgery, based on body weights (OVX mice: 30.71±1.65 g, 28.0-35.1 g; sham operated mice: 26.99±1.46 g, 24.4-28.7 g), 8 mice per group were selected from all experimental animals including sham operated group, and used for experiments.
More specifically, the anti-obesity and estrogen-like effects were tested as follows. The body weights on OVX surgery date, 1 day before administration (27 days after OVX), the start date of administration, and from the first day after start of administration up to the time of final sacrifice at least once a week were each recorded, and change amounts of body weights, i.e., body weight gains, for the recovery period after OVX (menopausal disorder induction period) and 12 weeks after start of administration were measured. […]

OVX ddY mice [2] = assay: Abdominal fat pad, uterus and liver weights in OVX ddY mice
Protocol: as §1
(§2) More specifically, the anti-obesity and estrogen-like effects were tested as follows. The body weights on OVX surgery date, 1 day before administration (27 days after OVX), the start date of administration, and from the first day after start of administration up to the time of final sacrifice at least once a week were each recorded, and change amounts of body weights, i.e., body weight gains, for the recovery period after OVX (menopausal disorder induction period) and 12 weeks after start of administration were measured. Food consumption (1, 3, 7, 28, 56 and 83 days after start of administration), serum estradiol levels, amounts of body fat and abdominal fat, weights of abdominal fat pad and uterus, histological changes of uterus and abdominal fat pads (changes in abdominal fat pad thickness and mean adipocyte diameter, thickness of uterus total, epithelium and mucosa, and percentage of uterine glands in the mucosa (FIG. 19) were observed.
(§3) Furthermore, to ascertain the protective effect against fatty liver, testing was conducted as follows. Liver weight, serum AST and ALT levels, and histological changes of liver (changes in mean hepatocyte diameter and region with hepatic degeneration showing fatty change) were observed.

OVX ddY mice [3] = assay: Femur weights in OVX ddY mice
Protocol: as §1
(§4) The osteoporosis reduction effect was ascertained through histological changes in wet, dry and ash weights of femurs, BMD (FIG. 20), bone strength (FIG. 21), serum osteocalcin and bALP levels, bone mass and structure (trabecular bone mass, trabecular bone number, thickness and length, and cortical bone thickness), and bone resorption (osteoclast cell number and osteoclast cell surface (OS/BS)).

OVX ddY mice [4] = assay: Serum biochemistry in OVX ddY mice
Protocol: as §1, §2, §3
The hyperlipidemia inhibitory effect was ascertained through changes in serum TC, LDL, HDL and TG levels.
as §4

OVX ddY mice [5] = assay: Bone mineral density and fat density (DEXA) in OVX ddY mice
Protocol: as §1, §2, §4

OVX ddY mice [6] = assay: Femur bone strength (failure load) in OVX ddY mice
Protocol: Bone strength is measured through failure load (FL).
as §1, with “efficacy. […]” for “efficacy.”

OVX ddY mice [7] = assay: Histology of abdominal fat pad, uterus and liver in OVX ddY mice
Protocol: as §1, §2, §3

OVX ddY mice [8] = assay: Femur histomorphometry in OVX ddY mice
Protocol: as §1, §4

Structure (SMILES): C[C@]12CC[C@@H]3c4ccc(O)cc4CC[C@H]3[C@@H]1CC[C@@H]2O [Estradiol, 17β-estradiol]
- Body weight at sacrifice (OVX ddY mice [1]): 35.68 ± 2.19^ab g
- Body weight gain, treatment [D-C] (OVX ddY mice [1]): 6.96 ± 1.21^fg
- Change in body weight gain for duration of administration vs OVX control (OVX ddY mice [1]): −52.56%
- Change in food consumption vs OVX control, day 1 (OVX ddY mice [1]): 0.87%
- Change in food consumption vs OVX control, day 3 (OVX ddY mice [1]): −5.24%
- Change in food consumption vs OVX control, day 7 (OVX ddY mice [1]): −13.04%
- Change in food consumption vs OVX control, day 28 (OVX ddY mice [1]): −16.34%
- Change in food consumption vs OVX control, day 56 (OVX ddY mice [1]): −20.01%
- Change in food consumption vs OVX control, day 83 (OVX ddY mice [1]): −27.82%
- Food consumption, day 1 (OVX ddY mice [1]): 11.49 ± 1.41^a g/24 hrs/rat
- Food consumption, day 3 (OVX ddY mice [1]): 10.53 ± 0.93^a g/24 hrs/rat
- Food consumption, day 7 (OVX ddY mice [1]): 9.82 ± 0.93^ac g/24 hrs/rat
- Food consumption, day 28 (OVX ddY mice [1]): 9.52 ± 1.01^ab g/24 hrs/rat
- Food consumption, day 56 (OVX ddY mice [1]): 10.24 ± 0.98^ab g/24 hrs/rat
- Food consumption, day 83 (OVX ddY mice [1]): 10.65 ± 1.54^de g/24 hrs/rat
- Abdominal fat pad absolute wet-weight (OVX ddY mice [2]): 0.600 ± 0.536^bc g
- Abdominal fat pad relative wet-weight (OVX ddY mice [2]): 1.656 ± 1.432^bc % of body weight
- Change in abdominal fat pad absolute weight vs OVX control (OVX ddY mice [2]): −82.20%
- Change in abdominal fat pad relative weight vs OVX control (OVX ddY mice [2]): −78.86%
- Change in absolute liver weight vs OVX control (OVX ddY mice [2]): 5.37%
- Change in relative liver weight vs OVX control (OVX ddY mice [2]): 27.16%
- Change in uterus absolute weight vs OVX control (OVX ddY mice [2]): 288.64%
- Change in uterus relative weight vs OVX control (OVX ddY mice [2]): 372.56%
- Liver absolute wet-weight (OVX ddY mice [2]): 1.324 ± 0.073 g
- Liver relative wet-weight (OVX ddY mice [2]): 3.724 ± 0.307^c % of body weight
- Uterus absolute wet-weight (OVX ddY mice [2]): 0.107 ± 0.040^ac g
- Uterus relative wet-weight (OVX ddY mice [2]): 0.303 ± 0.124^ac % of body weight
- Change in femur absolute ash weight vs OVX control (OVX ddY mice [3]): 30.35%
- Change in femur absolute dry weight vs OVX control (OVX ddY mice [3]): 14.93%
- Change in femur absolute wet weight vs OVX control (OVX ddY mice [3]): 5.79%
- Change in femur relative ash weight vs OVX control (OVX ddY mice [3]): 57.03%
- Change in femur relative dry weight vs OVX control (OVX ddY mice [3]): 38.22%
- Change in femur relative wet weight vs OVX control (OVX ddY mice [3]): 27.75%
- Femur absolute ash weight (OVX ddY mice [3]): 0.033 ± 0.002^ac g
- Femur absolute dry weight (OVX ddY mice [3]): 0.058 ± 0.004^gi
- Femur absolute wet weight (OVX ddY mice [3]): 0.094 ± 0.007 g
- Femur relative ash weight (OVX ddY mice [3]): 0.092 ± 0.007^ac % of body weight
- Femur relative dry weight (OVX ddY mice [3]): 0.162 ± 0.016^gi % of body weight
- Femur relative wet weight (OVX ddY mice [3]): 0.264 ± 0.032^ac % of body weight
- Change in serum AST level vs OVX control (first series) (OVX ddY mice [4]): −33.98%
- Change in serum AST level vs OVX control (second series) (OVX ddY mice [4]): −31.58%
- Change in serum HDL level vs OVX control (OVX ddY mice [4]): 52.09%
- Change in serum LDL level vs OVX control (OVX ddY mice [4]): −26.87%
- Change in serum TC level vs OVX control (OVX ddY mice [4]): −25.94%
- Change in serum TG level vs OVX control (OVX ddY mice [4]): −34.80%
- Change in serum bALP level vs OVX control (OVX ddY mice [4]): 39.72%
- Change in serum estradiol level vs OVX control (OVX ddY mice [4]): 185.69%
- Change in serum osteocalcin level vs OVX control (OVX ddY mice [4]): −31.95%
- Serum ALT (OVX ddY mice [4]): 52.00 ± 10.03^ac U/L
- Serum AST (OVX ddY mice [4]): 107.13 ± 12.43^ac U/L
- Serum HDL (OVX ddY mice [4]): 72.63 ± 11.04^ac mg/dl
- Serum LDL (OVX ddY mice [4]): 133.00 ± 10.54^ac mg/dl
- Serum TC (OVX ddY mice [4]): 132.75 ± 21.06^ac mg/dl
- Serum TG (OVX ddY mice [4]): 97.88 ± 18.16^ac mg/dl
- Bone mineral density, right femur (OVX ddY mice [5]): 0.0259 ± 0.0008^bc g/cm^2
- Bone mineral density, total body (OVX ddY mice [5]): 0.0237 ± 0.0004^ac g/cm^2
- Change in amount of abdominal fat vs OVX control (OVX ddY mice [5]): −35.00%
- Change in amount of body fat vs OVX control (OVX ddY mice [5]): −33.02%
- Change in mean total body bone mineral density vs OVX control (OVX ddY mice [5]): 9.86%
- Change in total femur bone mineral density vs OVX control (OVX ddY mice [5]): 10.78%
- Fat density, abdominal cavity (OVX ddY mice [5]): 26.75 ± 4.22^ac % of body mass
- Fat density, total body (OVX ddY mice [5]): 23.42 ± 4.24^ac % of body mass
- Change in bone strength of femur mid-shaft region vs OVX control (OVX ddY mice [6]): 61.41%
- Change in abdominal fat pad thickness vs OVX control (OVX ddY mice [7]): −52.23%
- Change in mean adipocyte diameter vs OVX control (OVX ddY mice [7]): −48.06%
- Change in mean hepatocyte diameter vs OVX control (OVX ddY mice [7]): −42.21%
- Change in percentage of uterine glands in the uterine mucosa vs OVX control (OVX ddY mice [7]): 180.37%
- Change in region with hepatic fatty degeneration vs OVX control (OVX ddY mice [7]): −44.73%
- Change in uterine epithelium mean thickness vs OVX control (OVX ddY mice [7]): 170.17%
- Change in uterine mucosa mean thickness vs OVX control (OVX ddY mice [7]): 196.04%
- Change in uterus total mean thickness vs OVX control (OVX ddY mice [7]): 181.27%
- Hepatic steatosis regions (OVX ddY mice [7]): 43.43 ± 6.53^ac %
- Left uterine horn epithelium thickness (OVX ddY mice [7]): 20.75 ± 4.52^ac μm
- Left uterine horn mucosa layer thickness (OVX ddY mice [7]): 598.74 ± 153.51^ac μm
- Left uterine horn total thickness (OVX ddY mice [7]): 1593.32 ± 371.85^bc μm
- Mean adipocyte diameters (OVX ddY mice [7]): 67.49 ± 14.77^ac μm
- Mean hepatocyte diameters (OVX ddY mice [7]): 18.45 ± 3.66^ac μm
- Uterine gland regions (OVX ddY mice [7]): 34.93 ± 4.60^ac %
- Change in femur OS/BS vs OVX control (OVX ddY mice [8]): −37.50%
- Change in femur cortical bone thickness vs OVX control (OVX ddY mice [8]): 21.85%
- Change in femur mean trabecular bone number vs OVX control (OVX ddY mice [8]): 92.68%
- Change in femur osteoclast cell number vs OVX control (OVX ddY mice [8]): −55.15%
- Change in femur trabecular bone mass vs OVX control (OVX ddY mice [8]): 73.01%
- Change in mean length of femur trabecular bone vs OVX control (OVX ddY mice [8]): 89.04%
- Change in mean thickness of femur trabecular bone vs OVX control (OVX ddY mice [8]): 70.56%
- Left femur Cbt (OVX ddY mice [8]): 184.17 ± 8.40^eg
- Left femur OS/BS (OVX ddY mice [8]): 13.12 ± 1.41^eg
- Left femur Ocn (OVX ddY mice [8]): 7.63 ± 1.06^ab
- Left femur TV/BV (OVX ddY mice [8]): 29.89 ± 5.24^ab
- Left femur Tbl (OVX ddY mice [8]): 905.51 ± 146.34^g
- Left femur Tbn (OVX ddY mice [8]): 9.88 ± 1.36^eg
- Left femur Tbt (OVX ddY mice [8]): 55.34 ± 8.99^eg
